In patent US10478406B2, “High-pH solid-state epinephrine formulation” (HARC Therapeutics AG, priority 2019, dated 2019):

Test: Suspension assay testing: epinephrine dissolved in suspension
Assay type: physicochemical
From the text: Sample numbers /1 and /2 were not acidic. To confirm that these samples produced solid state epinephrine rather than dissolved epinephrine, I had these samples assayed to determine whether the epinephrine had in fact dissolved into solution and if so, by what amount.
Sample numbers /3 and /4 were basic pH. I thus had these samples assayed to determine whether the epinephrine dissolved into solution and if so, by what amount.

total epinephrine that dissolves in water (basic pH 8.5): about 0.1%
total epinephrine that dissolves in water (pH 7, without added acid): about 0.45%
SMILES: CNC[C@H](O)c1ccc(O)c(O)c1 [Epinephrine, 4-[(1 R)-1-Hydroxy-2-(methylamino)ethyl]-1,2-benzenediol]
